The values that follow come from ChEMBL document CHEMBL3112479, “Synthesis and evaluation of the antimicrobial activities of 3-((5-phenyl-1,3,4-oxadiazol-2-yl)methyl)-2-thioxothiazolidin-4-one derivatives” (2014).

Converted amounts (≈) assume the structure as drawn.

In assay [1] the test system is Salmonella typhimurium. As to the kind of experiment: Antimicrobial activity against Salmonella typhimurium 1926 after 20 hrs by two-fold serial dilution technique. The assay is classed as functional, Salmonella enterica subsp. enterica serovar Typhimurium. The settings on record: Salmonella enterica, 1926, 20 h.
Assay [2] concerns Candida albicans. As to the kind of experiment: Antimicrobial activity against Candida albicans 7535 after 20 hrs by two-fold serial dilution technique. In kind it is functional. The note with it: Candida albicans, 7535, 20 h.
The subject of assay [3] is Staphylococcus aureus. As to the kind of experiment: Antimicrobial activity against quinolone-resistant Staphylococcus aureus clinical isolate 3519 after 20 hrs by two-fold serial dilution technique. The assay is classed as functional. The settings on record: isolate 3519, 20 h.
Assay [4] concerns Escherichia coli. The assay can be described thus: Antimicrobial activity against Escherichia coli KCTC 1924 after 20 hrs by two-fold serial dilution technique. The assay is classed as functional. The note with it: KCTC 1924, 20 h.
The subject of assay [5] is Pseudomonas aeruginosa. The assay can be described thus: Antimicrobial activity against Pseudomonas aeruginosa 2004 after 20 hrs by two-fold serial dilution technique. In kind it is functional. The settings on record: Pseudomonas aeruginosa, 2004, 20 h.
Assay [6] has as its system Streptococcus mutans. As to the kind of experiment: Antimicrobial activity against Streptococcus mutans 3065 after 20 hrs by two-fold serial dilution technique. In kind it is functional. The note with it: Streptococcus mutans, 3065, 20 h.
In assay [7] the test system is Staphylococcus aureus. The assay can be described thus: Antimicrobial activity against Staphylococcus aureus RN4220 after 20 hrs by two-fold serial dilution technique. The note with it: RN4220, 20 h. The assay is classed as functional.
Assay [8] concerns Staphylococcus aureus. The assay can be described thus: Antimicrobial activity against quinolone-resistant Staphylococcus aureus clinical isolate 3505 after 20 hrs by two-fold serial dilution technique. The settings on record: isolate 3505, 20 h. The assay is classed as functional.
For assay [9], the system named is Escherichia coli. The assay can be described thus: Antimicrobial activity against Escherichia coli CCARM 1356 after 20 hrs by two-fold serial dilution technique. In kind it is functional. The settings on record: CCARM 1356, 20 h.
Assay [10] concerns Staphylococcus aureus. As to the kind of experiment: Antimicrobial activity against methicillin-resistant Staphylococcus aureus clinical isolate 3167 after 20 hrs by two-fold serial dilution technique. The assay is classed as functional. The settings on record: isolate 3167, 20 h.
Assay [11] concerns Staphylococcus aureus. The assay can be described thus: Antimicrobial activity against Staphylococcus aureus 503 after 20 hrs by two-fold serial dilution technique. The assay is classed as functional. The settings on record: Staphylococcus aureus, 503, 20 h.
Assay [12] deals with Salmonella typhimurium. The assay can be described thus: Antimicrobial activity against Salmonella typhimurium 2421 after 20 hrs by two-fold serial dilution technique. The assay is classed as functional, Salmonella enterica subsp. enterica serovar Typhimurium. The settings on record: Salmonella enterica, 2421, 20 h.
Assay [13] deals with Staphylococcus aureus. As to the kind of experiment: Antimicrobial activity against Staphylococcus aureus 209 after 20 hrs by two-fold serial dilution technique. The assay is classed as functional. The note with it: Staphylococcus aureus, 209, 20 h.
Assay [14] concerns Staphylococcus aureus. As to the kind of experiment: Antimicrobial activity against methicillin-resistant Staphylococcus aureus clinical isolate 3506 after 20 hrs by two-fold serial dilution technique. The assay is classed as functional. The settings on record: isolate 3506, 20 h.
For assay [15], the system named is Pseudomonas aeruginosa. As to the kind of experiment: Antimicrobial activity against Pseudomonas aeruginosa 2742 after 20 hrs by two-fold serial dilution technique. In kind it is functional. The settings on record: Pseudomonas aeruginosa, 2742, 20 h.

The term MIC denotes the smallest concentration in the dilution series that meets the test's criterion for growth inhibition. With `O=C1CSC(=S)N1[C@@H](Cc1ccccc1)c1nnc(-c2ccccc2)o1`, the MIC in assay [1] was over 128 µg/mL; in [2], over 64 µg/mL; in [3], 16 µg/mL (≈ 41.9 µM); in assay [4], over 128 µg/mL; in assay [5], over 128 µg/mL; in assay [6], 8 µg/mL (≈ 21 µM). Also, the MIC in assay [7] is 16 µg/mL (≈ 41.9 µM); in assay [8], 16 µg/mL (≈ 41.9 µM); in assay [9] it was over 128 µg/mL; in [10], 16 µg/mL (≈ 41.9 µM); in assay [11], over 64 µg/mL; in assay [12], over 128 µg/mL. Besides, the figures for the MIC in [13], in [14] and in assay [15] were over 64 µg/mL, 16 µg/mL (≈ 41.9 µM) and over 128 µg/mL, respectively.

As for `Cc1cccc(-c2nnc([C@H](Cc3ccccc3)N3C(=O)/C(=C/c4ccc(C(=O)O)cc4)SC3=S)o2)c1`, the MIC is over 128 µg/mL in assay [1]; over 64 µg/mL in assay [2]; 4 µg/mL (≈ 7.58 µM) in [3]; over 128 µg/mL in assay [4]; over 128 µg/mL in assay [5]; 4 µg/mL (≈ 7.58 µM) in [6]. The MIC was 2 µg/mL (≈ 3.79 µM) in assay [7]; 2 µg/mL (≈ 3.79 µM) in [8]; over 128 µg/mL in assay [9]; 2 µg/mL (≈ 3.79 µM) in [10]; over 64 µg/mL in assay [11]; over 128 µg/mL in assay [12]. Further, the MIC was over 64 µg/mL in assay [13], 4 µg/mL (≈ 7.58 µM) in assay [14] and over 128 µg/mL in [15].

Take `O=C1CSC(=S)N1Cc1nnc(-c2ccccc2F)o1`: the MIC in assay [1] is 64 µg/mL (≈ 207 µM); in [2], 64 µg/mL (≈ 207 µM); in [3], 64 µg/mL (≈ 207 µM); in assay [4], 32 µg/mL (≈ 103 µM); in assay [5] it was over 128 µg/mL; in assay [6] it was 32 µg/mL (≈ 103 µM). The minimal inhibitory concentration (MIC) in [7] was 64 µg/mL (≈ 207 µM); in [8], 64 µg/mL (≈ 207 µM); in [9] it was over 128 µg/mL; in assay [10] it was 64 µg/mL (≈ 207 µM); in assay [11] it was 64 µg/mL (≈ 207 µM); in assay [12], 64 µg/mL (≈ 207 µM). Further, the MIC in assay [13] is 16 µg/mL (≈ 51.7 µM); in [14] it was 64 µg/mL (≈ 207 µM); in assay [15] it was over 128 µg/mL.

As for `O=C1CSC(=S)N1[C@@H](Cc1ccccc1)c1nnc(-c2cccc(Br)c2)o1`, the MIC in assay [1] was over 128 µg/mL; in [2] it was over 64 µg/mL; in assay [3], 4 µg/mL (≈ 8.69 µM); in [4], over 128 µg/mL; in assay [5], over 128 µg/mL; in [6] it was 2 µg/mL (≈ 4.34 µM). Further, the minimum inhibitory concentration (MIC) in assay [7] was 4 µg/mL (≈ 8.69 µM); in assay [8], 2 µg/mL (≈ 4.34 µM); in assay [9], over 128 µg/mL; in [10], 2 µg/mL (≈ 4.34 µM); in assay [11], over 64 µg/mL; in assay [12], over 128 µg/mL. The MIC was over 64 µg/mL in assay [13], 4 µg/mL (≈ 8.69 µM) in assay [14] and over 128 µg/mL in assay [15].

For `O=C1CSC(=S)N1Cc1nnc(-c2ccccc2Br)o1`, the MIC is 64 µg/mL (≈ 173 µM) in assay [1]; 64 µg/mL (≈ 173 µM) in assay [2]; 32 µg/mL (≈ 86.4 µM) in [3]; 16 µg/mL (≈ 43.2 µM) in assay [4]; over 128 µg/mL in assay [5]; 16 µg/mL (≈ 43.2 µM) in assay [6]. The minimal inhibitory concentration (MIC) is 32 µg/mL (≈ 86.4 µM) in assay [7]; 32 µg/mL (≈ 86.4 µM) in [8]; over 128 µg/mL in assay [9]; 16 µg/mL (≈ 43.2 µM) in assay [10]; 64 µg/mL (≈ 173 µM) in [11]; 128 µg/mL (≈ 346 µM) in [12]. For the same compound, the MIC in assay [13] is 16 µg/mL (≈ 43.2 µM); in [14], 32 µg/mL (≈ 86.4 µM); in [15], over 128 µg/mL.

`O=C(O)c1ccc(/C=C2\SC(=S)N([C@@H](Cc3ccccc3)c3nnc(-c4cccc(Br)c4)o3)C2=O)cc1`: the MIC in assay [1] is over 128 µg/mL; in assay [2], over 64 µg/mL; in assay [3], 2 µg/mL (≈ 3.38 µM); in assay [4], over 128 µg/mL; in assay [5], over 128 µg/mL; in assay [6], 1 µg/mL (≈ 1.69 µM). Further, the MIC in assay [7] was 2 µg/mL (≈ 3.38 µM); in assay [8], 2 µg/mL (≈ 3.38 µM); in assay [9] it was over 128 µg/mL; in [10], 1 µg/mL (≈ 1.69 µM); in assay [11] it was over 64 µg/mL; in [12], over 128 µg/mL. In addition, the MIC in assay [13] was over 64 µg/mL; in assay [14], 1 µg/mL (≈ 1.69 µM); in assay [15], over 128 µg/mL.

With `Cc1cccc(-c2nnc([C@H](Cc3ccccc3)N3C(=O)CSC3=S)o2)c1`, the MIC in assay [1] was over 128 µg/mL; in assay [2], over 64 µg/mL; in [3] it was 8 µg/mL (≈ 20.2 µM); in [4], over 128 µg/mL; in assay [5] it was over 128 µg/mL; in assay [6], 4 µg/mL (≈ 10.1 µM). Further, the MIC in assay [7] is 8 µg/mL (≈ 20.2 µM); in assay [8] it was 8 µg/mL (≈ 20.2 µM); in assay [9] it was over 128 µg/mL; in [10], 8 µg/mL (≈ 20.2 µM); in [11], over 64 µg/mL; in assay [12], over 128 µg/mL. The MIC in [13] is over 64 µg/mL; in assay [14], 8 µg/mL (≈ 20.2 µM); in [15], over 128 µg/mL.

In the case of `Cc1cccc(-c2nnc(CN3C(=O)CSC3=S)o2)c1`, the MIC in [1] is 64 µg/mL (≈ 210 µM); in assay [2], 64 µg/mL (≈ 210 µM); in assay [3], 32 µg/mL (≈ 105 µM); in [4], 16 µg/mL (≈ 52.4 µM); in assay [5] it was over 128 µg/mL; in assay [6], 8 µg/mL (≈ 26.2 µM). The MIC was 32 µg/mL (≈ 105 µM) in assay [7]; 32 µg/mL (≈ 105 µM) in [8]; over 128 µg/mL in [9]; 32 µg/mL (≈ 105 µM) in assay [10]; 32 µg/mL (≈ 105 µM) in assay [11]; 128 µg/mL (≈ 419 µM) in [12]. Moreover, the MIC is 16 µg/mL (≈ 52.4 µM) in [13], 32 µg/mL (≈ 105 µM) in assay [14] and over 128 µg/mL in assay [15].

As to `O=C(O)c1ccc(/C=C2\SC(=S)N([C@@H](Cc3ccccc3)c3nnc(-c4cccc(Cl)c4)o3)C2=O)cc1`, the minimum inhibitory concentration (MIC) in assay [1] is over 128 µg/mL; in [2] it was over 64 µg/mL; in [3] it was 4 µg/mL (≈ 7.3 µM); in assay [4], over 128 µg/mL; in assay [5], over 128 µg/mL; in assay [6] it was 2 µg/mL (≈ 3.65 µM). The MIC in assay [7] is 2 µg/mL (≈ 3.65 µM); in [8], 2 µg/mL (≈ 3.65 µM); in assay [9] it was over 128 µg/mL; in [10], 2 µg/mL (≈ 3.65 µM); in [11], over 64 µg/mL; in [12], over 128 µg/mL. Also, the MIC in assay [13] is over 64 µg/mL; in assay [14], 4 µg/mL (≈ 7.3 µM); in [15], over 128 µg/mL.
